{"source": "patent US7722863B2", "about": "“Use of granzyme b as an hsp70/hsp70 peptide dependent inducer of apoptosis in tumor cells” (Multimmune GmbH, priority 2002, dated 2010)", "key": {"CX− tumor cells [1]": {"tested_on": "CX− tumor cells", "assay": "Cytochrome c release, quantitative immunoassay", "type": "cell-based, human", "settings": "camptothecin 4 μg/ml or granzyme B 6 ng/ml, 24 h", "description": "(§1) Cytochrome c release: Cytochrome c release was determined using a quantitative immunoassay; (DCDCO, R&D Systems, Wiesbaden, Germany). Briefly, either untreated, camptothecin (4 μg/ml) or granzyme B (6 ng/ml) treated CX+ and CX− cells (1.5×10^6/ml) were washed in PBS and treated with lysis buffer for 1 h at room temperature. Following centrifugation at 1,000 g for 15 min supernatants were removed and 200 μl of a 1:100, 1:250, and a 1:500 dilution was used for a sandwich ELISA. Following incubation with substrate solution in the dark for 30 min the reaction was stopped. The optical density of each well was determined on an ELISA reader at 450 nm. The amount of cytochrome c was determined according to a calibration curve.\n(§2) As an additional test for apoptotic cell death, cytochrome c release was measured following incubation of CX+ and CX− cells with granzyme B for 24 h. As summarized in Table I, following incubation with granzyme B (6 ng/ml) for 24 h, cytochrome c concentration was elevated from 0.382 mg/ml to 0.690 mg/ml (1.8-fold) in CX+ cells. […] It was propose that the trigger of apoptosis by granzyme B is mediated via the extracellular exposed Hsp70 epitope TKD."}, "CX+ tumor cells [2]": {"tested_on": "CX+ tumor cells", "assay": "Cytochrome c release, quantitative immunoassay", "type": "cell-based, human", "settings": "camptothecin 4 μg/ml or granzyme B 6 ng/ml, 24 h", "description": "as §1, §2"}, "CX− tumor cells [3]": {"tested_on": "CX− tumor cells", "assay": "DAPI staining of nuclear DNA fragmentation", "type": "cell-based, human", "settings": "24 h, camptothecin 4 μg/ml or granzyme B 6 ng/ml", "description": "(§3) DAPI-staining: Methanol/aceton fixed cells (0.1×10^6 cells/100 μl) were incubated with 0.5 μg/μl 4,6-diamino-2-phenylindole (DAPI) in PBS/glycerol (3:1), for 15 min in the dark. Following washing in PBS the cells were mounted with Fluorescent Mounting Medium (Dako, Glostrup, Denmark) and than analysed for fluorescence using a Zeiss model Axioscop 2 scanning microscope (Zeiss Jena, Germany) equipped with a 40× objective and standard filters. Apoptosis was visualized with DAPI-staining in 50 cells, each. Images were treated by multiplicative shading correction using software Axiovision (Zeiss Vision Jena, Germany)."}, "CX+ tumor cells [4]": {"tested_on": "CX+ tumor cells", "assay": "DAPI staining of nuclear DNA fragmentation", "type": "cell-based, human", "settings": "24 h, camptothecin 4 μg/ml or granzyme B 6 ng/ml", "description": "as §3"}, "Colo− tumor cells": {"tested_on": "Colo− tumor cells", "assay": "DAPI staining of nuclear DNA fragmentation", "type": "cell-based, human", "settings": "24 h, camptothecin 4 μg/ml or granzyme B 6 ng/ml", "description": "as §3"}, "Colo+ tumor cells": {"tested_on": "Colo+ tumor cells", "assay": "DAPI staining of nuclear DNA fragmentation", "type": "cell-based, human", "settings": "24 h, camptothecin 4 μg/ml or granzyme B 6 ng/ml", "description": "as §3"}, "[5]": {"tested_on": "Hsp70 membrane-positive Colo+ cells", "assay": "Annexin V-FITC apoptosis assay (flow cytometry)", "type": "cell-based, human", "settings": "12 h and 24 h; camptothecin 4 μg/ml", "description": "(§4) Exponentially growing tumor cells (day 1 after cell passage) were used for granzyme B, camptothecin treatment and as targets in cytotoxicity assays.\n(§5) Stock solutions of camptothecin (4 mg/ml, Sigma, Munich, Germany) were diluted in DMSO and stored at 4° C. in the dark. Granzyme B (6 ng/ml, Hölzel Diagnostics, Cologne, Germany) solutions were freshly prepared directly before usage. Exponentially growing cells (0.5-1.5×10^6/ml) were incubated either with camptothecin at a final concentration of 4 μg/ml or with purified, enzymatically active granzyme B (10 ng/ml, 1 μg/ml, 2 μg/ml; 4 μg/ml) (Shi et. al. (2000) Methods in Enzymology 322, 125) for 10 min, and 30 min either at 4° C. or at 37° C. After washing in RPMI-1640 medium binding and uptake was determined in nonpermeabilized and permeabilized tumor cells by flow cytometry and fluorescence microscopy on a Axioscop 25 scanning microscope (Zeiss, Jena, Germany) equipped with a 40× objective and standard filters. Images were treated by multiplicative shading correction using the software Axiovison (Zeiss Vison, Jena, Germany). Granzyme B was visualized in red by using the HC2-PE antibody.\n(§6) Apoptotic Cell Death was Determined after Incubation of Tumor Cells with 6 ng/ml Granzyme B for 4 h, 12 h, and 24 h at 37° C. and Washing in RPMI-1640 Medium by Different Apoptosis Assays, as Described Below. Apoptosis Assays\n(§7) Annexin V-FITC staining: Briefly, cells were washed twice in Hepes buffer containing 5 mM CaCl2 and incubated with Annexin V-FITC (Roche) for 10 min at room temperature. Annexin V-FITC positively stained cells were measured on a FACSCalibur flow cytometer (Becton Dickinson, Heidelberg, Germany).\n(§8) The preceding findings posed the question whether purified granzyme B can induce apoptosis of tumor cells that present Hsp70 on their cell surface. […] As a positive control for apoptosis all cell types were incubated with the topoisomerase inhibitor camptothecin at a concentration of 4 μg/ml. Apoptosis was determined by Annexin V-FITC staining measured by FACS (FACSCalibur, Becton Dickinson, Heidelberg, Germany), DAPI staining and mitochondrial cytochrome c release. Apoptosis was not detected in CX+ and CX− cells incubated with camptothecin (cam) or granzyme B (grB) for 4 h incubation (FIG. 3A). […] It appeared that the colon carcinoma sublines CX+/CX− are better protected towards a camptothecin-mediated cell death as compared to the pancreas carcinoma sublines Colo+/Colo−."}, "[6]": {"tested_on": "Hsp70 membrane-negative Colo− cells", "assay": "Annexin V-FITC apoptosis assay (flow cytometry)", "type": "cell-based, human", "settings": "12 h and 24 h; camptothecin 4 μg/ml or granzyme B 6 ng/ml", "description": "as §4, §5, §6, §7, §8"}, "[7]": {"tested_on": "Hsp70 membrane-negative CX− cells", "assay": "Annexin V-FITC apoptosis assay (flow cytometry)", "type": "cell-based, human", "settings": "for apoptosis in CX− cells: camptothecin 4 μg/ml or granzyme B 6 ng/ml; for amount of Annexin V-FITC positively stained CX− cells / fold increase of Annexin V-FITC positively stained CX− cells: camptothecin 4 μg/ml; for fold increase of Annexin V-FITC positively stained CX− cells: versus untreated", "description": "as §4, §5, §6, §7, §8"}, "[8]": {"tested_on": "Hsp70 membrane-positive CX+ cells", "assay": "Annexin V-FITC apoptosis assay (flow cytometry)", "type": "cell-based, human", "settings": "camptothecin 4 μg/ml or granzyme B 6 ng/ml; for fold increase of Annexin V-FITC positively stained CX+ cells: versus untreated", "description": "as §4, §5, §6, §7, §8"}, "[9]": {"tested_on": "Hsp70 membrane-positive tumor target cells", "settings": "Hsp70-protein 10 to 50 μg/ml; cited from earlier work"}}, "data": [{"molecule": "CC[C@@]1(O)C(=O)OCc2c1cc1n(c2=O)Cc2cc3ccccc3nc2-1", "note": "[camptothecin, reference compound]", "values": [{"measurement": "cytochrome c fold increase", "setting": "CX− tumor cells [1]; control 1.0", "value": 1.5, "unit": "fold"}, {"measurement": "cytochrome c", "setting": "CX− tumor cells [1]; mean of 4 experiments ± S.E., control 0.452 ± 0.02", "value": "0.672 ± 0.02", "unit": "mg/mL"}, {"measurement": "cytochrome c fold increase", "setting": "CX+ tumor cells [2]; control 1.0", "value": 1.5, "unit": "fold"}, {"measurement": "cytochrome c", "setting": "CX+ tumor cells [2]; mean of 4 experiments ± S.E., control 0.382 ± 0.02", "value": "0.555 ± 0.04", "unit": "mg/mL"}, {"measurement": "nuclear DNA fragmentation (DAPI)", "setting": "CX− tumor cells [3]", "value": "exhibited nuclear fragmentation"}, {"measurement": "nuclear DNA fragmentation (DAPI)", "setting": "CX+ tumor cells [4]", "value": "exhibited nuclear fragmentation"}, {"measurement": "nuclear DNA fragmentation (DAPI)", "setting": "Colo− tumor cells", "value": "exhibited nuclear fragmentation"}, {"measurement": "nuclear DNA fragmentation (DAPI)", "setting": "Colo+ tumor cells", "value": "exhibited nuclear fragmentation"}, {"measurement": "apoptosis in Colo+ cells", "setting": "[5]", "value": "underwent apoptosis"}, {"measurement": "apoptosis in Colo− cells", "setting": "[6]", "value": "underwent apoptosis"}, {"measurement": "apoptosis in CX− cells", "setting": "[7]; 4 h incubation", "value": "not detected"}, {"measurement": "amount of Annexin V-FITC positively stained CX− cells", "setting": "[7]; 12 h, untreated 12.1%", "value": 19.8, "unit": "%"}, {"measurement": "fold increase of Annexin V-FITC positively stained CX− cells", "setting": "[7]; 12 h", "value": 1.6, "unit": "fold"}, {"measurement": "apoptosis in CX− cells", "setting": "[7]; 12 h and 24 h", "value": "underwent apoptosis"}, {"measurement": "amount of Annexin V-FITC positively stained CX− cells", "setting": "[7]; 24 h, untreated 11.9%", "value": 25.1, "unit": "%"}, {"measurement": "fold increase of Annexin V-FITC positively stained CX− cells", "setting": "[7]; 24 h", "value": 2.1, "unit": "fold"}, {"measurement": "apoptosis in CX+ cells", "setting": "[8]; 4 h incubation", "value": "not detected"}, {"measurement": "amount of Annexin V-FITC positively stained CX+ cells", "setting": "[8]; 12 h, untreated 16.6%", "value": 28.0, "unit": "%"}, {"measurement": "fold increase of Annexin V-FITC positively stained CX+ cells", "setting": "[8]; 12 h", "value": 1.7, "unit": "fold"}, {"measurement": "apoptosis in CX+ cells", "setting": "[8]; 12 h and 24 h", "value": "underwent apoptosis"}, {"measurement": "amount of Annexin V-FITC positively stained CX+ cells", "setting": "[8]; 24 h, untreated 18%", "value": 39, "unit": "%"}, {"measurement": "fold increase of Annexin V-FITC positively stained CX+ cells", "setting": "[8]; 24 h", "value": 2.1, "unit": "fold"}]}, {"molecule": "Hsp70-protein: recombinant human Hsp70-protein (Stressgen)", "values": [{"measurement": "cytolytic activity of NK cells against Hsp70 membrane-positive tumor target cells", "setting": "[9]", "value": "increased cytolytic activity"}]}]}
